This assay concerns the target T1, FLuc-C-HiBiT (Photinus pyralis, UniProt P08659).
T1 construct: firefly luciferase with C-terminal HiBiT tag, E. coli expressed
The assay is described as follows: biochemical. Conditions: enzyme activity, 10 uM ATP; read-out: IC50 or SDR50 (mM) / FLuc E.

T1 sequence (P08659 whole entry, looked up): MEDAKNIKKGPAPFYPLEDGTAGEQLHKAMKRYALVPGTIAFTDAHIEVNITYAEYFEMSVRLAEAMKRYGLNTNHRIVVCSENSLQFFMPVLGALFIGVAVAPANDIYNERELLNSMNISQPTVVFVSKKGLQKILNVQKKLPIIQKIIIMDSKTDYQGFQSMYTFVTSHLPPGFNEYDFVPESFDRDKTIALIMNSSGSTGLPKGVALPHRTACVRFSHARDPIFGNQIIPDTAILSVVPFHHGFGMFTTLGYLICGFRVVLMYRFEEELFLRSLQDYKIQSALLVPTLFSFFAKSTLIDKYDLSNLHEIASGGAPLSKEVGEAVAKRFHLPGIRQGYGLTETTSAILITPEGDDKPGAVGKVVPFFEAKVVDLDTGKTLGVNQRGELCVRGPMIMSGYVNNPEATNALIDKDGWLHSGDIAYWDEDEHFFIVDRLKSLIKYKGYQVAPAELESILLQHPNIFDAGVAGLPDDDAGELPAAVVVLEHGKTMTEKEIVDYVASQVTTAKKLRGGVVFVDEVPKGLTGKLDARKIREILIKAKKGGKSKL

In the case of `O=C(Nc1ccc2c(c1)OCCO2)N1CCC(c2nc(C3CCOCC3)no2)CC1` [NCGC00453474-01], the IC50 came to 11.1 µM.
The result for `CC(C)c1ccc(NC(=O)O[C@@H]2CO[C@H]3[C@@H]2OC[C@@H]3N[S+](=O)([O-])c2cccs2)cc1` [NCGC00399549-01] reads 8.81 µM; that for `Cc1ccc(-c2ncc3c(n2)OCCN(Cc2ccc(F)cc2F)C3=O)cc1` [NCGC00413538-01], over 30 µM; that for `Cc1ccc(Nc2c(-c3ccc(N(C)C)cc3)nc3[nH]cnn23)cc1` [NCGC00105887-01], 12.4 µM.
Under `COCCNc1cc(-c2ccc3ccccc3n2)c2cc[nH]c2n1` [NCGC00440476-01] stands 12.4 µM; under `Cc1ccc(NC(=O)Nc2cccn3nc(C)nc23)cc1` [NCGC00470444-01], 11.1 µM; under `CCn1ncc(NC(=O)Cn2ncc3cc(-c4ccc(N(C)C)cc4)ccc32)n1` [NCGC00433406-01], 0.785 µM.
Regarding `O=C(NCCc1c[nH]cn1)c1ccc2nc(-c3ccc(F)cc3)cn2c1` [NCGC00444507-03], the IC50 is 14 µM.
Consider `Fc1cc(Nc2cnc3ccc(-c4ccccc4)nn23)cc(N2CCOCC2)c1` [NCGC00412489-01], for which the IC50 is 16.1 µM.
On to `CN(C1CCc2ccccc2C1)[S+](=O)([O-])c1cccs1` (stereo not drawn) [NCGC00480121-01], for which the IC50 was over 30 µM.
Turning to `COc1ccc(NC(=O)c2cc3c(=O)[nH]c(C)cn3n2)cc1OC` [NCGC00453925-01], the IC50 came to 9.89 µM.
As to `Cc1cncc(C(=O)N2CCOc3c(O)cc(-c4nc5ccccc5s4)cc3C2)c1` [NCGC00433624-01], the IC50 is over 30 µM.
Turning to `CCc1cccc(NC(=O)c2cc(-c3ccccc3)n[nH]2)c1` [NCGC00125661-01], the IC50 was determined as 2.79 µM.
Under `CC(C)(C)C1CCc2nc(NC(=O)c3cccc(Cl)c3)sc2C1` (stereo not drawn) [NCGC00119231-01] stands 2.48 µM; under `Cn1c(C(=O)Nc2ccc3c(c2)OCO3)cc2c1CCN(Cc1cccc(F)c1)C2` [NCGC00430636-01], over 30 µM.
On to `Cc1cccc(NC(=O)c2ccc(-c3ccccc3)s2)c1` [NCGC00114320-01], for which the IC50 is 2.79 µM.
Take `CCCc1ccc(OCc2ccc(C(=O)Nc3ccccc3C(=O)OC)o2)cc1` [NCGC00101032-01]: the IC50 stood at 12.4 µM.
On to `Cc1cc(NC(=O)c2ccc(CN3CC[C@H](O)C3)cc2)ccc1F` [NCGC00432832-01], for which the IC50 was determined as 1.97 µM.
The result for `CCOc1ccc(-n2nc(CO)c(C(=O)NCc3ccccn3)n2)cc1` [NCGC00117131-01] reads 11.1 µM.
The result for `Clc1ccc(-c2cn3cc(Cc4ccccc4)sc3n2)cc1` [NCGC00102104-01] reads 0.785 µM; that for `Cc1cc(CNC(=O)C2CCCCn3nnnc32)c2[nH]c(-c3ccccc3)c(C)c2c1` (stereo not drawn) [NCGC00434459-01], 11.1 µM; that for `COc1cccc(C(=O)Nc2cccc(OCc3cc(=O)n4c5c(sc4n3)CCCC5)c2)c1` [NCGC00111495-01], 9.89 µM.
On to `Cc1ccc2nc(-c3cccc(NC(=O)CSc4ccc(Cl)cc4)c3)oc2c1` [NCGC00102431-01], for which the IC50 amounted to 3.51 µM.
For `COc1cccc(F)c1-c1ccc(COc2ccc3c(cnn3CCC(=O)O)c2)cc1` [NCGC00418057-01], the IC50 came out at 20.2 µM.
The result for `CN(CCc1cn[nH]c1)c1ccc(-c2nc(-c3ccccc3F)no2)cn1` [NCGC00429241-01] reads 3.13 µM.
As for `Cc1ccc(-c2cc3c(=O)n(CCNC(=O)c4cccnc4)ccn3n2)c(C)c1` [NCGC00456961-01], the IC50 amounted to 9.89 µM.
Regarding `Cc1ccc(-c2nc3ccccc3s2)cc1NC(=O)c1ccc(-c2cccc(Cl)c2)o1` [NCGC00187468-01], the IC50 is over 30 µM.
For `COc1ccc(CN2CCOC[C@H](OCC(=O)N(C)C)C2)cc1` [NCGC00393502-01], the IC50 was over 30 µM.
For `Cc1c(C(=O)NCc2cccc(Br)c2)oc2ccc3c(c12)C(=O)CC(C)(C)O3` [NCGC00113428-01], the IC50 is 11.1 µM.
`COc1ccc(CN2CCNc3cc(Nc4ccccc4)ncc3C2)cn1` [NCGC00411080-01]: the IC50 came to 18 µM.
With `OC(c1nc(Nc2ccc(Oc3ccccc3)cc2)n[nH]1)C1CC1` (stereo not drawn) [NCGC00411906-01], the IC50 was 20.2 µM.
For the molecule `O=C(O)c1cccc(-c2noc(-c3ccccc3Cl)n2)c1` [NCGC00168762-01], the IC50 worked out at 0.00351 µM.
On to `O=C(c1cc2ccc3cccnc3c2[nH]1)N1CCCCC1` [NCGC00126930-01], for which the IC50 came to 1.57 µM.
With `O=C(Nc1ccc(-c2nc3ccccc3s2)c(O)c1)c1ccccc1` [NCGC00594711-01], the IC50 was over 30 µM.
As for `COc1ccc(-c2cc3c(cn2)CN(Cc2cccnc2)CCN3)cc1F` [NCGC00411039-01], the IC50 was determined as 14.3 µM.
Turning to `COC(=O)c1c(-c2cccs2)csc1NC(=O)c1ccc(Br)cc1` [NCGC00118335-01], the IC50 is 11.1 µM.
The result for `CSCC(=O)Nc1nc2c(s1)C[C@]1(C)CC[C@@H]3[C@H](OC(=O)[C@H]3C)[C@H]1[C@@H]2C` [NCGC00401416-01] reads 4.53 µM; that for `O=C(Nc1ccc(F)cc1)Nc1cccc(-c2ccc(N3CCOCC3)nn2)c1` [NCGC00427578-01], 1.97 µM.
The result for `Cc1cc(CNC(=O)CC2C=C[S+](=O)([O-])C2)c2[nH]c(-c3ccccc3)c(C)c2c1` (stereo not drawn) [NCGC00441154-01] reads 11.1 µM; that for `COC(=O)C1CCN(c2csc3ccc(C)cc3c2=O)CC1` [NCGC00132290-01], 7.85 µM; that for `CN(C)c1ccc(-c2noc([C@@H]3CCCN3Cc3cnc4ccccc4c3)n2)cn1` [NCGC00394599-01], over 30 µM.
Turning to `COc1ccc(CNC(=O)Cn2cccc2C(=O)c2ccccc2C)cc1` [NCGC00113808-01], the IC50 was over 30 µM.
Regarding `O=C(Nc1ccc([C@H]2OCC(=O)N(C3CCOCC3)[C@@H]2CO)cc1)c1ccc(C(F)(F)F)cc1` [NCGC00391115-01], the IC50 worked out at 12.4 µM.
With `COc1cc(OC)cc(C(=O)Nc2ccc(-c3nc4ccccc4s3)c(C)c2)c1` [NCGC00137814-01], the IC50 was over 30 µM.
As to `C[C@H](C(=O)N(C)CCC#N)C1CC[C@@]2(C)Cc3sc(NC(=O)c4cccn4C)nc3[C@@H](C)[C@@H]2[C@H]1O` (stereo partly drawn) [NCGC00421252-01], the IC50 was found to be 7 µM.
For `CSCC(=O)N[C@H]1CCN2C(=O)c3cc(-c4ccc(SC)cc4)ccc3NC(=O)[C@H]12` [NCGC00391740-01], the IC50 came to 11.1 µM.
With `O=C(NC[C@H]1Cn2cc(-c3ccc4c(c3)OCCCO4)nc2CO1)c1ccc2c(c1)OCO2` [NCGC00392108-01], the IC50 was 9.89 µM.
Regarding `CCN1CCN(c2ccc(-c3cccc(N)c3)nn2)CC1` [NCGC00432707-01], the IC50 turned out to be 9.89 µM.
Take `CCNC(=O)N[C@@H]1C=C[C@@H](c2c(C)nn(-c3ccc(F)cc3)c2C)C1` [NCGC00392634-01]: the IC50 turned out to be 20.2 µM.
Take `COc1cccc(-c2ncc3c(n2)OCCN(Cc2ccc(F)cc2F)C3=O)c1` [NCGC00413648-01]: the IC50 was 16.1 µM.
Take `O=C(/C=C/c1ccccc1)Nc1cc(-c2nc3cc(Cl)ccc3o2)ccc1Cl` [NCGC00102391-01]: the IC50 is over 30 µM.
On to `O=C(Cc1cccc(Cl)c1)N1CCn2c(nnc2-c2ccccc2)C1` [NCGC00479548-01], for which the IC50 is 15.7 µM.
Under `Cc1cc2nn(-c3ccc(Cl)cc3)nc2cc1NC(=O)C(C)C` [NCGC00099081-01] stands 0.7 µM; under `Cc1ccc(NC(=O)N2CCCC(c3noc(COc4ccccc4)n3)C2)cc1C` (stereo not drawn) [NCGC00453299-01], 8.81 µM.
`Cc1ccc(-n2nc(C)c([C@@H]3C=C[C@@H](NC(=O)Nc4ccc(Cl)cc4)C3)c2C)cc1Cl` [NCGC00400070-01]: the IC50 came out at 9.89 µM.
In the case of `CC1CCCN(c2ncnc3c2cnn3-c2ccccc2)C1` (stereo not drawn) [NCGC00081381-02], the IC50 was found to be 0.442 µM.
For the molecule `CCc1ccccc1Nc1nc(-c2cccc(OC)c2OC)no1` [NCGC00422354-01], the IC50 is 11.1 µM.
For `CCOC(=O)c1ccc(NC2SC(=O)N(Cc3cccc(C(=O)O)c3)C2=O)cc1` (stereo not drawn) [NCGC00099894-01], the IC50 amounted to 12.4 µM.
With `O=C(Nc1ccc(F)cc1)c1cc2cccnn2n1` [NCGC00477081-01], the IC50 was 18 µM.
As to `O=C(Nc1ccccc1F)c1ccc(-c2ccccc2)s1` [NCGC00114318-01], the IC50 was found to be 2.48 µM.
Consider `O=C(O)c1cccc(-c2noc(-c3ccc(Cl)cc3)n2)c1` [NCGC00168764-01], for which the IC50 is 0.00221 µM.
In the case of `Cc1ccc(C(=O)Nc2cccc3cccnc23)cc1Cl` [NCGC00103195-01], the IC50 is over 30 µM.
Under `N#Cc1c(-n2ncnc2-c2ccc(Br)cc2)sc2c1CCCCC2` [NCGC00099350-01] stands 9.89 µM; under `COC(=O)c1cccc(-c2noc(-c3ccccc3F)n2)c1` [NCGC00183594-01], 3.51 µM; under `COc1cccc(CN2CCNc3cc(-c4ccnc(C)c4)ncc3C2)c1` [NCGC00411029-01], 18 µM.
Take `CCc1nc(-c2ccc(OC3CCN(C(=O)C4CC4)C3)cc2)no1` (stereo not drawn) [NCGC00440987-01]: the IC50 is 12.4 µM.
Under `Cc1ccc2[nH]c([C@H]3CCN(C(C)C)C3)nc2c1` [NCGC00391182-01] stands 25.4 µM; under `c1ccc(COc2cccc(-c3nc4ccccc4s3)c2)cc1` [NCGC00167622-01], 4.95 µM.
As to `c1ccc(Nc2cc3c(cn2)CN(CC2CCOC2)CCN3)cc1` (stereo not drawn) [NCGC00411051-01], the IC50 amounted to 20.2 µM.
On to `Cc1ccc(C(=O)Nc2cccc(C(=O)O)c2)cc1[S+](=O)([O-])N1CCCC1` [NCGC00098466-01], for which the IC50 turned out to be 0.0881 µM.
With `Cc1c(NC(=O)c2ccc(I)o2)cccc1-c1nc2ccccc2s1` [NCGC00595010-01], the IC50 is 7 µM.
On to `COc1ccc(C(=O)Nc2ccc3n(c2=O)C[C@H]2C[C@@H]3CN(C(=O)CCCC(=O)O)C2)cc1` [NCGC00397987-01], for which the IC50 worked out at 15.7 µM.
On to `O=C1Nc2ccc(C(=O)c3ccco3)cc2C1=Cc1cc(Cl)c(O)c(Cl)c1` [NCGC00242150-05], for which the IC50 was determined as 11.1 µM.
On to `Cc1ccc(-n2nc(C)c([C@@H]3C=C[C@@H](NC(=O)NC(C)C)C3)c2C)cc1Cl` [NCGC00399958-01], for which the IC50 was 14.3 µM.
Under `c1coc(-c2nc3nccc(-c4ccc5c(c4)OCCCO5)n3n2)c1` [NCGC00424571-01] stands 1.76 µM.

For the origin of these results see publication PMC12064818, “A general assay platform to study protein pharmacology using ligand-dependent structural dynamics” (Nature Communications, 2025).
